Reference: US20260092054A1, “FUSED RING COMPOUND AND PHARMACEUTICAL CONTAINING SAME” (KAKEN PHARMACEUTICAL CO., LTD., priority 2022, published 2026)
pIC50: −log10 of the molar value.

Target: T1, human STAT6/pIL-4Rα (Homo sapiens, UniProt P42226)
T1 construct: histidine tag
T1 sequence (P42226 123-658): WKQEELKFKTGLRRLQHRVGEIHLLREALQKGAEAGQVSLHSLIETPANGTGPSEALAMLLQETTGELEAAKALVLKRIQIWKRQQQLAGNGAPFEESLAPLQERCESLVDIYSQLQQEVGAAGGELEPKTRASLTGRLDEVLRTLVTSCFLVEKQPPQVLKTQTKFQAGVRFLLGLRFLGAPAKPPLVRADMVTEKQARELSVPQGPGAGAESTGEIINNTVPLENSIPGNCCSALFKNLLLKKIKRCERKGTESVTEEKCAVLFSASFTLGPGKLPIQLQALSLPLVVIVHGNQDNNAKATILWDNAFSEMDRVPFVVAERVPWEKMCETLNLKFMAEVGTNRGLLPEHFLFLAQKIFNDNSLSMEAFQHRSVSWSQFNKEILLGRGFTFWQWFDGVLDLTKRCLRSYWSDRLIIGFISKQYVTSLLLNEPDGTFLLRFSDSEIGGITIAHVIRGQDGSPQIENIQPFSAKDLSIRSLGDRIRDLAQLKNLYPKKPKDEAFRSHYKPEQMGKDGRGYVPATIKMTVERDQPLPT
Experiment: Binding inhibitory activity between human STAT6/pIL-4Rα by fluorescence polarization method
Conditions: rhSTAT6 (123-658) / FAM-pIL-4Rα peptide
Procedure: Test Example 1: Measurement of Binding Inhibitory Activity Between Human STAT6/pIL-p 4Rα by Fluorescence Polarization Method
1) Construction of Histidine Tag-Fused Recombinant Human STAT6 (123 to 658 Region)
A histidine tag-fused recombinant human STAT6 (hereinafter referred to as rhSTAT6) expression vector [plasmid DNA in which a nucleic acid sequence containing human STAT6 (123-658 region) was inserted into a pET28a(+) vector (Novagen)] was inserted into E. coli, and the cells were cultured overnight under culturing conditions at 17° C. with IPTG treatment. After disrupting E. coli with a high-pressure homogenizer (EmulsiFlex-C3, manufactured by AVESTIN, Inc.), affinity purification using Ni-NTA agarose (manufactured by Qiagen), cation exchange chromatography using HiTrap® CM-FF (manufactured by GE healthcare), and gel filtration chromatography using Superdex® 200 10/300GL (manufactured by GE healthcare) were performed to obtain rhSTAT6.
2) Measurement of Binding Inhibitory Activity Between Human STAT6/pIL-4Rα by Fluorescence Polarization Method
A DMSO solution of the example compound was diluted with an assay buffer [for example, a buffer containing 50 mmol/L NaCl, 10 mmol/L HEPES (pH 7.0), 1 mmol/L DTT, 1 mmol/L EDTA, and 0.01 vol % NP-40, and the like] to prepare a compound-added solution. The DMSO concentration in the compound addition solution was adjusted to 1 or 2 vol %. 10 μL of the compound addition solution and an assay buffer containing 1 or 2 vol % DMSO were added to each well of a 384-well plate. 5 μL of an assay buffer solution containing rhSTAT6 (rhSTAT6 concentration: for example, 1 μmol/L) or an assay buffer was added to each well of a 384-well plate. After leaving the plate at room temperature for 30 minutes in the dark, 5 μL of an assay buffer solution (FAM-pIL-4Rp concentration: for example, 80 nmol/L) containing FAM-labeled phosphorylated IL-4Rα peptide (sequence: FAM-Ala-pTyr-Lys-Pro-Phe-Gln-Asp-Leu-IIe-NH2) (hereinafter, FAM-pIL-4Rp) or an assay buffer containing 2 vol % DMSO was added to each well of the 384-well plate. The mixture was left to stand at room temperature for 30 minutes in the dark, and then centrifuged (200 g, 1 minute, room temperature). Fluorescence polarization values were measured using Infinite (registered trademark) F500 (manufactured by Tecan Japan Co., Ltd.) (Excitation: 485 nm, Emission: 535 nm). The inhibition rate of each Example compound was calculated according to the following formula using the fluorescence polarization value (A) when rhSTAT6 and FAM-pIL-4Rp were added without adding the Example compound, the fluorescence polarization value (B) when FAM-pIL-4Rp was added without adding the Example compound and rhSTAT6, and the fluorescence polarization value (C) when each Example compound, rhSTAT6, and FAM-pIL-4Rp were added.
In the evaluation of each example compound, the 50% inhibitory concentration (IC50) of each example compound was calculated from a linear function equation of a straight line connecting two points sandwiching 50%.

SMILES | pIC50
CC1CC(C)N(c2ccc(-c3cc4ccnc(C(=O)Nc5cccc(C(N)=O)c5F)c4n3CC3(C#N)CC3)cc2)C1=O (single isomer, unassigned) [Ex. 224] | 5.80
CCn1c(-c2ccc(-n3ccccc3=O)cc2)nc2cc(C(F)(F)F)cc(C(=O)Nc3cccc(C(N)=O)c3C)c21 [Ex. 10] | 5.49
Cc1nn(C)c(=O)n1-c1ccc(-c2cc3cc(C(F)(F)F)cc(C(=O)Nc4ccc(F)c(C(N)=O)c4)c3n2C)cc1 [Ex. 55] | 5.59
CCn1c(-c2ccc(-n3c(C)nn(C)c3=O)cc2)cc2ccnc(C(=O)Nc3cccc(C(=O)O)c3)c21 [Ex. 164] | 6.49
COCCn1c(-c2ccc(N(C)C(C)=O)cc2)nc2cc(CC#N)cc(C(=O)Nc3cccc(C(N)=O)c3)c21 [Ex. 214] | 5.40
COCCn1c(-c2ccc(-n3c(C)nn(C)c3=O)cc2)cc2ccnc(C(=O)Nc3cccc(C(N)=O)c3)c21 [Ex. 106] | 5.71
CC1CC(C)N(c2ccc(-c3cc4ccnc(C(=O)Nc5ccc(F)c(C(N)=O)c5)c4n3CC3(C#N)CC3)cc2)C1=O (single isomer, unassigned) [Ex. 222] | 5.51
COCCn1c(-c2ccc(N(C)C(C)=O)cc2)nc2cc(CO)cc(C(=O)Nc3cccc(C(N)=O)c3)c21 [Ex. 213] | 5.46
CCn1c(-c2ccc(-n3c(C)nn(C)c3=O)cc2)cc2cc(C(F)(F)F)cc(C(=O)Nc3ccc(CC(N)=O)cc3)c21 [Ex. 103] | 5.58
CCn1c(-c2ccc(-n3c(C)nn(C)c3=O)cc2)cc2cc(C(F)(F)F)cc(C(=O)Nc3ccc4c(c3)NC(=O)C4)c21 [Ex. 101] | 5.39
COCCn1c(-c2ccc(-n3c(C)nn(C)c3=O)cc2)cc2cc(C(F)(F)F)cc(C(=O)Nc3cncs3)c21 [Ex. 86] | 5.75
COCCn1c(-c2ccc(N(C)C(C)=O)cc2)nc2cc(C(C)C)cc(C(=O)Nc3cccc(C(N)=O)c3)c21 [Ex. 210] | 5.56
COCCn1c(-c2ccc(-n3c(C)nn(C)c3=O)cc2)cc2cc(C(F)(F)F)cc(C(=O)Nc3ccc(F)cc3)c21 [Ex. 53] | 5.40
CCn1c(-c2ccc(-n3c(C)nn(C)c3=O)cc2)cc2cccc(C(=O)Nc3cccc(C(N)=O)c3F)c21 [Ex. 58] | 6.26
COCCn1c(-c2ccc(-n3c(C)nn(C)c3=O)cc2)cc2cc(C(F)(F)F)cc(C(=O)Nc3cccc(S(N)(=O)=O)c3)c21 [Ex. 63] | 5.60
